Data taken from BindingDB's records for doi:10.1016/j.bmcl.2008.02.001 (Cephalon, 2008).

Assay: Inhibition of VEGF-stimulated VEGFR2 autophosphorylation in HUVEC cells […] relative to control

Structure (SMILES): CO/N=C(\C)c1ccc2c(c1)c1c3c(c4c(c1n2CC(C)C)CCc1nn(C)cc1-4)C(=O)NC3 [7-[(1E)-1-(methoxyimino)ethyl]-19-methyl-3-(2-methylpropyl)-3,13,19,20-tetraazahexacyclo[14.7.0.0^{2,10}.0^{4,9}.0^{11,15}.0^{17,21}]tricosa-1(16),2(10),4,6,8,11(15),17,20-octaen-14-one]
- IC50: 4 nM
